Data taken from ChEMBL document CHEMBL5724806, “Unraveling interindividual differences and functional consequences of gut microbial metabolism of immunosuppressants” (2024).

Columns and labels:
Type in all cases: ADME
[1] = The drug is tested on Lactobacillus gasseri strain: DSM20243 for biotransformation under anaerobic condition. The drug concentrations were measured over 6 timepoints collected between 0 and 12 hours of incubation by liquid-chromatography-coupled mass spectrometry (LC–MS); design: dose 5 uM, timepoint 0, 1.5, 3, 6, 9, 12 hours; settings: 5 µM
[2] = The drug is tested on the gut metagenome community of P-04 with ENA study accession number: PRJEB31790 for biotransformation under anaerobic condition. The drug concentrations were measured over 7 timepoints collected between 0 and 12 hours of incubation by liquid-chromatography-coupled mass spectrometry (LC–MS); design: dose 5 uM, timepoint 0, 0.75, 1.5, 3, 6, 9, 12 hours; settings: 5 µM
[3] = The drug is tested on Capnocytophaga ochracea strain: DSM7271 for biotransformation under microaerobic condition. The drug concentrations were measured over 6 timepoints collected between 0 and 12 hours of incubation by liquid-chromatography-coupled mass spectrometry (LC–MS); design: dose 5 uM, timepoint 0, 1.5, 3, 6, 9, 12 hours; settings: 5 µM
[4] = The drug is tested on the gut metagenome community of P-02 with ENA study accession number: PRJEB31790 for biotransformation under anaerobic condition. The drug concentrations were measured over 7 timepoints collected between 0 and 12 hours of incubation by liquid-chromatography-coupled mass spectrometry (LC–MS); design: dose 5 uM, timepoint 0, 0.75, 1.5, 3, 6, 9, 12 hours; settings: 5 µM
[5] = The drug is tested on Eubacterium hallii strain: DSM3353 for biotransformation under anaerobic condition. The drug concentrations were measured over 6 timepoints collected between 0 and 12 hours of incubation by liquid-chromatography-coupled mass spectrometry (LC–MS); design: dose 5 uM, timepoint 0, 1.5, 3, 6, 9, 12 hours; settings: anaerobutyricum hallii, 5 µM
[6] = The drug is tested on the gut metagenome community of T-02 with ENA study accession number: PRJEB31790 for biotransformation under anaerobic condition. The drug concentrations were measured over 7 timepoints collected between 0 and 12 hours of incubation by liquid-chromatography-coupled mass spectrometry (LC–MS); design: dose 5 uM, timepoint 0, 0.75, 1.5, 3, 6, 9, 12 hours; settings: 5 µM
[7] = The drug is tested on Actinomyces naeslundi strain: DSM43013 for biotransformation under microaerobic condition. The drug concentrations were measured over 6 timepoints collected between 0 and 12 hours of incubation by liquid-chromatography-coupled mass spectrometry (LC–MS); design: dose 5 uM, timepoint 0, 1.5, 3, 6, 9, 12 hours; settings: actinomyces naeslundii, 5 µM
[8] = The drug is tested on Streptococcus anginosus strain: DSM20563 for biotransformation under microaerobic condition. The drug concentrations were measured over 6 timepoints collected between 0 and 12 hours of incubation by liquid-chromatography-coupled mass spectrometry (LC–MS); design: dose 5 uM, timepoint 0, 1.5, 3, 6, 9, 12 hours; settings: 5 µM
[9] = The drug is tested on Eubacterium eligens strain: DSM3376 for biotransformation under anaerobic condition. The drug concentrations were measured over 6 timepoints collected between 0 and 12 hours of incubation by liquid-chromatography-coupled mass spectrometry (LC–MS); design: dose 5 uM, timepoint 0, 1.5, 3, 6, 9, 12 hours; settings: lachnospira eligens, 5 µM
[10] = The drug is tested on Lactobacillus reuteri strain: DSM20016 for biotransformation under microaerobic condition. The drug concentrations were measured over 6 timepoints collected between 0 and 12 hours of incubation by liquid-chromatography-coupled mass spectrometry (LC–MS); design: dose 5 uM, timepoint 0, 1.5, 3, 6, 9, 12 hours; settings: limosilactobacillus reuteri, 5 µM
[11] = The drug is tested on Bacteroides thetaiotaomicron strain: DSM2079 for biotransformation under anaerobic condition. The drug concentrations were measured over 6 timepoints collected between 0 and 12 hours of incubation by liquid-chromatography-coupled mass spectrometry (LC–MS); design: dose 5 uM, timepoint 0, 1.5, 3, 6, 9, 12 hours; settings: 5 µM
[12] = The drug is tested on Roseburia intestinalis strain: DSM14610 for biotransformation under anaerobic condition. The drug concentrations were measured over 6 timepoints collected between 0 and 12 hours of incubation by liquid-chromatography-coupled mass spectrometry (LC–MS); design: dose 5 uM, timepoint 0, 1.5, 3, 6, 9, 12 hours; settings: 5 µM
[13] = The drug is tested on Akkermansia muciniphila strain: DSM22959 for biotransformation under anaerobic condition. The drug concentrations were measured over 6 timepoints collected between 0 and 12 hours of incubation by liquid-chromatography-coupled mass spectrometry (LC–MS); design: dose 5 uM, timepoint 0, 1.5, 3, 6, 9, 12 hours; settings: 5 µM
[14] = The drug is tested on Faecalibacterium prausnitzii strain: DSM17677 for biotransformation under anaerobic condition. The drug concentrations were measured over 6 timepoints collected between 0 and 12 hours of incubation by liquid-chromatography-coupled mass spectrometry (LC–MS); design: dose 5 uM, timepoint 0, 1.5, 3, 6, 9, 12 hours; settings: faecalibacterium duncaniae, 5 µM
[15] = The drug is tested on Clostridium scindens strain: DSM5676 for biotransformation under anaerobic condition. The drug concentrations were measured over 6 timepoints collected between 0 and 12 hours of incubation by liquid-chromatography-coupled mass spectrometry (LC–MS); design: dose 5 uM, timepoint 0, 1.5, 3, 6, 9, 12 hours; settings: 5 µM
[16] = The drug is tested on the gut metagenome community of A-06 with ENA study accession number: PRJEB31790 for biotransformation under microaerobic condition. The drug concentrations were measured over 7 timepoints collected between 0 and 12 hours of incubation by liquid-chromatography-coupled mass spectrometry (LC–MS); design: dose 5 uM, timepoint 0, 0.75, 1.5, 3, 6, 9, 12 hours; settings: 5 µM
[17] = The drug is tested on Blautia hansenii strain: DSM20583 for biotransformation under anaerobic condition. The drug concentrations were measured over 6 timepoints collected between 0 and 12 hours of incubation by liquid-chromatography-coupled mass spectrometry (LC–MS); design: dose 5 uM, timepoint 0, 1.5, 3, 6, 9, 12 hours; settings: 5 µM
[18] = The drug is tested on Streptococcus mitis strain: DSM12643 for biotransformation under anaerobic condition. The drug concentrations were measured over 6 timepoints collected between 0 and 12 hours of incubation by liquid-chromatography-coupled mass spectrometry (LC–MS); design: dose 5 uM, timepoint 0, 1.5, 3, 6, 9, 12 hours; settings: 5 µM
[19] = The drug is tested on Enterococcus faecalis strain: ATCC29212 for biotransformation under anaerobic condition. The drug concentrations were measured over 6 timepoints collected between 0 and 12 hours of incubation by liquid-chromatography-coupled mass spectrometry (LC–MS); design: dose 5 uM, timepoint 0, 1.5, 3, 6, 9, 12 hours; settings: 5 µM
[20] = The drug is tested on Bacteroides xylanisolvens strain: HM 722 for biotransformation under anaerobic condition. The drug concentrations were measured over 6 timepoints collected between 0 and 12 hours of incubation by liquid-chromatography-coupled mass spectrometry (LC–MS); design: dose 5 uM, timepoint 0, 1.5, 3, 6, 9, 12 hours; settings: 5 µM
[21] = The drug is tested on the gut metagenome community of A-06 with ENA study accession number: PRJEB31790 for biotransformation under anaerobic condition. The drug concentrations were measured over 7 timepoints collected between 0 and 12 hours of incubation by liquid-chromatography-coupled mass spectrometry (LC–MS); design: dose 5 uM, timepoint 0, 0.75, 1.5, 3, 6, 9, 12 hours; settings: 5 µM
[22] = The drug is tested on Alloscardovia omnicolens strain: DSM21503 for biotransformation under anaerobic condition. The drug concentrations were measured over 6 timepoints collected between 0 and 12 hours of incubation by liquid-chromatography-coupled mass spectrometry (LC–MS); design: dose 5 uM, timepoint 0, 1.5, 3, 6, 9, 12 hours; settings: 5 µM
[23] = The drug is tested on the gut metagenome community of T-03 with ENA study accession number: PRJEB31790 for biotransformation under microaerobic condition. The drug concentrations were measured over 7 timepoints collected between 0 and 12 hours of incubation by liquid-chromatography-coupled mass spectrometry (LC–MS); design: dose 5 uM, timepoint 0, 0.75, 1.5, 3, 6, 9, 12 hours; settings: 5 µM
[24] = The drug is tested on Lactobacillus ruminis strain: ATCC25644 for biotransformation under microaerobic condition. The drug concentrations were measured over 6 timepoints collected between 0 and 12 hours of incubation by liquid-chromatography-coupled mass spectrometry (LC–MS); design: dose 5 uM, timepoint 0, 1.5, 3, 6, 9, 12 hours; settings: ligilactobacillus ruminis, 5 µM
[25] = The drug is tested on the gut metagenome community of P-02 with ENA study accession number: PRJEB31790 for biotransformation under microaerobic condition. The drug concentrations were measured over 7 timepoints collected between 0 and 12 hours of incubation by liquid-chromatography-coupled mass spectrometry (LC–MS); design: dose 5 uM, timepoint 0, 0.75, 1.5, 3, 6, 9, 12 hours; settings: 5 µM
[26] = The drug is tested on the gut metagenome community of T-05 with ENA study accession number: PRJEB31790 for biotransformation under microaerobic condition. The drug concentrations were measured over 7 timepoints collected between 0 and 12 hours of incubation by liquid-chromatography-coupled mass spectrometry (LC–MS); design: dose 5 uM, timepoint 0, 0.75, 1.5, 3, 6, 9, 12 hours; settings: 5 µM

C[C@]12C=CC(=O)C=C1CC[C@@H]1[C@@H]2[C@@H](O)C[C@@]2(C)[C@H]1CC[C@]2(O)C(=O)CO [PREDNISOLONE]
Bacterial Biotransformation [1]: Compound NOT metabolized | Bacterial Biotransformation [2]: Compound metabolized | Bacterial Biotransformation [3]: Compound NOT metabolized | Bacterial Biotransformation [4]: Compound metabolized | Bacterial Biotransformation [5]: Compound NOT metabolized | Bacterial Biotransformation [6]: Compound metabolized | Bacterial Biotransformation [7]: Compound NOT metabolized | Bacterial Biotransformation [8]: Compound NOT metabolized | Bacterial Biotransformation [9]: Compound NOT metabolized | Bacterial Biotransformation [10]: Compound NOT metabolized | Bacterial Biotransformation [11]: Compound NOT metabolized | Bacterial Biotransformation [12]: Compound NOT metabolized | Bacterial Biotransformation [13]: Compound NOT metabolized | Bacterial Biotransformation [14]: Compound NOT metabolized | Bacterial Biotransformation [15]: Compound metabolized | Bacterial Biotransformation [16]: Compound metabolized | Bacterial Biotransformation [17]: Compound NOT metabolized | Bacterial Biotransformation [18]: Compound NOT metabolized | Bacterial Biotransformation [19]: Compound NOT metabolized | Bacterial Biotransformation [20]: Compound NOT metabolized | Bacterial Biotransformation [21]: Compound metabolized | Bacterial Biotransformation [22]: Compound NOT metabolized | Bacterial Biotransformation [23]: Compound NOT metabolized | Bacterial Biotransformation [24]: Compound NOT metabolized | Bacterial Biotransformation [25]: Compound metabolized | Bacterial Biotransformation [26]: Compound NOT metabolized

C[C@]12C=CC(=O)C=C1CC[C@@H]1[C@@H]2C(=O)C[C@@]2(C)[C@H]1CC[C@]2(O)C(=O)CO [PREDNISONE]
Bacterial Biotransformation [1]: Compound NOT metabolized | Bacterial Biotransformation [2]: Compound metabolized | Bacterial Biotransformation [3]: Compound NOT metabolized | Bacterial Biotransformation [4]: Compound metabolized | Bacterial Biotransformation [5]: Compound NOT metabolized | Bacterial Biotransformation [6]: Compound metabolized | Bacterial Biotransformation [7]: Compound NOT metabolized | Bacterial Biotransformation [8]: Compound NOT metabolized | Bacterial Biotransformation [9]: Compound NOT metabolized | Bacterial Biotransformation [10]: Compound NOT metabolized | Bacterial Biotransformation [11]: Compound NOT metabolized | Bacterial Biotransformation [12]: Compound NOT metabolized | Bacterial Biotransformation [13]: Compound metabolized | Bacterial Biotransformation [14]: Compound metabolized | Bacterial Biotransformation [15]: Compound metabolized | Bacterial Biotransformation [16]: Compound metabolized | Bacterial Biotransformation [17]: Compound NOT metabolized | Bacterial Biotransformation [18]: Compound NOT metabolized | Bacterial Biotransformation [19]: Compound NOT metabolized | Bacterial Biotransformation [20]: Compound NOT metabolized | Bacterial Biotransformation [21]: Compound metabolized | Bacterial Biotransformation [22]: Compound NOT metabolized | Bacterial Biotransformation [23]: Compound NOT metabolized | Bacterial Biotransformation [24]: Compound NOT metabolized | Bacterial Biotransformation [25]: Compound metabolized | Bacterial Biotransformation [26]: Compound metabolized

CNC(=C[N+](=O)[O-])NCCSCc1ccc(CN(C)C)o1 [RANITIDINE]
Bacterial Biotransformation [1]: Compound NOT metabolized | Bacterial Biotransformation [2]: Compound NOT metabolized | Bacterial Biotransformation [3]: Compound NOT metabolized | Bacterial Biotransformation [4]: Compound metabolized | Bacterial Biotransformation [5]: Compound NOT metabolized | Bacterial Biotransformation [6]: Compound NOT metabolized | Bacterial Biotransformation [7]: Compound NOT metabolized | Bacterial Biotransformation [8]: Compound NOT metabolized | Bacterial Biotransformation [9]: Compound metabolized | Bacterial Biotransformation [10]: Compound NOT metabolized | Bacterial Biotransformation [11]: Compound NOT metabolized | Bacterial Biotransformation [12]: Compound NOT metabolized | Bacterial Biotransformation [13]: Compound NOT metabolized | Bacterial Biotransformation [14]: Compound NOT metabolized | Bacterial Biotransformation [15]: Compound NOT metabolized | Bacterial Biotransformation [16]: Compound metabolized | Bacterial Biotransformation [17]: Compound NOT metabolized | Bacterial Biotransformation [18]: Compound NOT metabolized | Bacterial Biotransformation [19]: Compound NOT metabolized | Bacterial Biotransformation [20]: Compound metabolized | Bacterial Biotransformation [21]: Compound metabolized | Bacterial Biotransformation [22]: Compound NOT metabolized | Bacterial Biotransformation [23]: Compound NOT metabolized | Bacterial Biotransformation [24]: Compound NOT metabolized | Bacterial Biotransformation [25]: Compound NOT metabolized | Bacterial Biotransformation [26]: Compound NOT metabolized
